Measurements reported in ChEMBL document CHEMBL3044833, “Anticonvulsant activity of 3,5-dimethylpyrazole derivatives in animal models” (Med Chem Res, 2011).
Activity calls are given as the source filed them. No cut-off for these calls is given here.

Experiments:
[1] = tested on: Mus musculus; test: Anticonvulsant activity in Mus musculus Balb/c (mouse) assessed as increase in latency to seizure at 100 mg/kg, ip pretreated 30 min before pentylenetetrazol challenge by pentylenetetrazol test; type: functional, organism-based; parameters: dose 100 mg/kg
[2] = tested on: Mus musculus; test: Anticonvulsant activity in Mus musculus Balb/c (mouse) assessed as inhibition of pentylenetetrazol-induced mortality at 100 mg/kg, ip pretreated 30 min before pentylenetetrazol challenge by pentylenetetrazol test; type: functional, organism-based; parameters: dose 100 mg/kg
[3] = tested on: Mus musculus; test: Anticonvulsant activity in Mus musculus Balb/c (mouse) assessed as decrease in severity of seizure at 100 mg/kg, ip pretreated 30 min before pentylenetetrazol challenge by pentylenetetrazol test; type: functional, organism-based; parameters: dose 100 mg/kg
[4] = tested on: Mus musculus; test: Anticonvulsant activity in Mus musculus Balb/c (mouse) assessed as decrease in severity of seizure at 150 to 200 mg/kg, ip pretreated 30 min before pentylenetetrazol challenge by pentylenetetrazol test; type: functional, organism-based
[5] = tested on: Mus musculus; test: Anticonvulsant activity in Mus musculus Balb/c (mouse) assessed as increase in latency to seizure at 150 to 200 mg/kg, ip pretreated 30 min before pentylenetetrazol challenge by pentylenetetrazol test; type: functional, organism-based
[6] = tested on: Mus musculus; test: Anticonvulsant activity in Mus musculus Balb/c (mouse) assessed as inhibition of pentylenetetrazol-induced mortality at 150 to 200 mg/kg, ip pretreated 30 min before pentylenetetrazol challenge by pentylenetetrazol test; type: functional, organism-based
[7] = tested on: Mus musculus; test: Toxicity in Mus musculus Balb/c (mouse) assessed as duration of spike-wave discharges at 150 mg/kg, ip measured for 2 hr by EEG recordings (reference value: 359.8 +/- 33.5 sec); type: organism-based; parameters: dose 150 mg/kg, route intraperitoneal; settings: in vivo
[8] = tested on: Mus musculus; test: Toxicity in Mus musculus Balb/c (mouse) assessed as duration of spike-wave discharges at 100 mg/kg, ip measured for 2 hr by EEG recordings (reference value: 359.8 +/- 33.5 sec); type: organism-based; parameters: dose 100 mg/kg, route intraperitoneal; settings: in vivo
[9] = tested on: Mus musculus; test: Anticonvulsant activity in Mus musculus Balb/c (mouse) assessed as effect on latency of tonic hind limb extension at 100 mg/kg, ip measured after 30 min by maximal electroshock seizure test; type: functional, organism-based; parameters: dose 100 mg/kg; settings: Hindlimb
[10] = tested on: Mus musculus; test: Anticonvulsant activity in Mus musculus Balb/c (mouse) assessed as effect on maximal electroshock-induced mortality rate 100 mg/kg, ip measured after 30 min; type: functional, organism-based; parameters: dose 100 mg/kg
[11] = tested on: Mus musculus; test: Anticonvulsant activity in Mus musculus Balb/c (mouse) assessed as decrease in duration of tonic hind limb extension at 100 mg/kg, ip measured after 30 min by maximal electroshock seizure test; type: functional, organism-based; parameters: dose 100 mg/kg; settings: Hindlimb
[12] = tested on: Mus musculus; test: Anticonvulsant activity in Mus musculus Balb/c (mouse) assessed as effect on severity of seizure at 150 to 200 mg/kg, ip pretreated 30 min before pentylenetetrazol challenge by pentylenetetrazol test; type: functional, organism-based

SMILES	Activity [1]	inhibition [2]	inhibition [3]	inhibition [4]	Activity [5]	inhibition [6]	Time [7]	Time [8]	Activity [9]	Activity [10]	inhibition [11]	Activity [12]
CCC1(C)CC(=O)NC1=O (configuration not stated)	Active	Active	Active	–	–	–	–	–	–	–	–	–
Cc1nn(C(=O)c2c(Cl)cccc2Cl)c(C)c1NC(=O)c1c(Cl)cccc1Cl	Active	Active	Active	Active	Active	Active	337.5 s	300 s	–	–	–	–
Cc1n[nH]c(C)c1/N=C/c1c(Cl)cccc1Cl	Active	Active	Active	–	–	–	–	–	inactive	inactive	Active	–
Cc1nn(C(=O)c2ccc(Cl)cc2)c(C)c1NC(=O)c1ccc(Cl)cc1	Active	Active	Active	–	–	–	–	–	–	–	–	–
Cc1nn(C(=O)c2ccc(F)cc2)c(C)c1NC(=O)c1ccc(F)cc1	Active	Active	Active	–	–	–	–	–	inactive	inactive	Active	–
COc1ccc(C(=O)Nc2c(C)nn(C(=O)c3ccc(OC)cc3)c2C)cc1	Active	Active	Active	–	Active	inactive	–	–	–	–	–	inactive
Cc1n[nH]c(C)c1/N=C/c1ccc(O)cc1	Active	Active	Active	–	–	–	–	–	–	–	–	–
Cc1n[nH]c(C)c1/N=C/c1ccccc1O	Active	Active	Active	–	–	–	–	–	–	–	–	–
Cc1ccc(C(=O)Nc2c(C)nn(C(=O)c3ccc(C)cc3)c2C)cc1	Active	Active	Active	–	–	–	–	–	–	–	–	–
Cc1n[nH]c(C)c1NC(=O)c1ccncc1	Active	Active	Active	–	–	–	–	–	–	–	–	–
Cc1n[nH]c(C)c1NC(=O)c1cccnc1	Active	Active	Active	–	–	–	–	–	–	–	–	–
